This is an account of results in patent US9034891B2, “Bicyclic heterocyclic spiro compounds” (ISRAEL INSTITUTE FOR BIOLOGICAL RESEARCH, priority 2009, dated 2015).

This assay deals with T1, M1 mAChR (Homo sapiens, UniProt P11229).
T1 sequence (P11229 1-460): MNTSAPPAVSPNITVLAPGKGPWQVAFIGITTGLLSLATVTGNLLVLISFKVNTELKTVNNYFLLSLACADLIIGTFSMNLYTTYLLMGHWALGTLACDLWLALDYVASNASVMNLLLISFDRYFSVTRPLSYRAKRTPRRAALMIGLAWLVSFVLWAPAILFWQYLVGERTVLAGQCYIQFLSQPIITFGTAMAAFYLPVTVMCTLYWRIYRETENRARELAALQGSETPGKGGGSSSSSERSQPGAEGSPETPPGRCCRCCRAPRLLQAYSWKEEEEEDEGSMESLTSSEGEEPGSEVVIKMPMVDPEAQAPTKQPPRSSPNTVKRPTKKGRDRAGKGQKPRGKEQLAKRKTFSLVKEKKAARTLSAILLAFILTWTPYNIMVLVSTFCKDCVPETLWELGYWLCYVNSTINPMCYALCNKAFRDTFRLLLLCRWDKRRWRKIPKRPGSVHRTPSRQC
Description: Intracellular Ca2+ mobilization (Fluo-4 NW) in cells stably transfected with M1 mAChR. Particulars: for M1 agonist at 100 μM vs. carbachol (full muscarinic agonist, 100%): mobilization of intracellular Ca ions; for Kd: read-out: Effects on M1 mAChR: antagonist, Kd; for activity at 100 µM: remaining carbachol-induced effect, read-out: Antagonist at 100 μM on M1 mAChR inhibiting carbachol-induced effects from 100% to. More on the design: expressed in transfected cells. The format is cell-based. The source says:
On the day of experiment, cells were fully confluent.
To evaluate selectivity for a subtype of mAChR, in particular the M1 mAChR vs. M3 and MS mAChR, the assays were calibrated using ligands that have a combined activity, e.g. M1 agonistic and M3 antagonistic or M1 agonistic and MS antagonistic profiles, respectively. This can eliminate effects due to different receptor reserves in cell-based assays.
For orientation: A change in cytosolic calcium serves as a functional read-out for many receptors and channels.

On to `CC1OC2(CCN(C)CC2)CN1C(=O)CCc1c[nH]c2ccccc12` (single isomer, unassigned) [AF711A], for which the “M1 agonist at 100 μM vs. carbachol (full muscarinic agonist, 100%)” value (from here on “M1 agonist … (full muscarinic agonist, 100%)”) is given as 45%.

Consider `CC1OC2(CCN(C)CC2)CN1C(=O)CCc1c[nH]c2ccccc12` (single isomer, unassigned) [AF711B], for which the Kd (usually the equilibrium constant for the complex coming apart) stood at 42 µM.

With `CC1OC2(CCN(C)CC2)CC1NC(=O)CCc1c[nH]c2ccccc12` (single isomer, unassigned) [AF730 II], the “M1 agonist … (full muscarinic agonist, 100%)” value is reported as 36%.

As for `CC1OC2(CCN(C)CC2)CC1NC(=O)CCc1c[nH]c2ccccc12` (single isomer, unassigned) [AF730, N-(2,8-dimethyl-1-oxa-8-aza-spiro[4.5]dec-3-yl)-3-(1H-indol-3-yl)-propionamide], the “M1 agonist … (full muscarinic agonist, 100%)” value was 40%.

Take `CC1CN(C(=O)CCc2c[nH]c3ccccc23)C2(CCN(C)CC2)O1` (stereo not drawn) [AF706, 1-(2,8-dimethyl-1-oxa-4,8-diazaspiro[4.5]dec-4-yl)-3-(1H-indol-3-yl)-propan-1-one]: the Kd was found to be 39.7 µM.

On to `CCCC(CCC)C(=O)N1CC2(CCN(C)CC2)OC1C` (stereo not drawn) [AF712, 1-(2,8-dimethyl-1-oxa-3,8-diaza-spiro[4.5]dec-3-yl)-2-propyl-pentan-1-one], for which the Kd was 22.6 µM.

In the case of `CCCC(CCC)C(=O)N1CC(C)OC12CCN(C)CC2` (stereo not drawn) [AF713, 1-(2,8-dimethyl-1-oxa-4,8-diaza-spiro[4.5]dec-4-yl)-2-propyl-pentan-1-one], the Kd was 113 µM.

As to `CC1CN(S(=O)(=O)c2ccc(F)cc2)C2(CCN(C)CC2)O1` (stereo not drawn) [AF714, 4-(4-fluoro-benzenesulfonyl)-2,8-dimethyl-1-oxa-4,8-diaza-spiro[4.5]-decane], the equilibrium dissociation constant (Kd) was determined as 9.7 µM.

On to `CC1OC2(CCN(C)CC2)CN1S(=O)(=O)c1ccc(F)cc1` (stereo not drawn) [AF715, 3-(4-fluorobenzenesulfonyl)-2,8-dimethyl-1-oxa-3,8-diazaspiro[4.5]-decane], for which the Kd is 2.5 µM.

On to `CC1SC2(CCN(C)CC2)CN1S(=O)(=O)c1ccc(F)cc1` (stereo not drawn) [AF716, 3-(4-fluorobenzenesulfonyl)-2,8-dimethyl-1-thia-3,8-diazaspiro[4.5]-decane], for which the Kd was 7.7 µM.

In the case of `CCCC(CCC)C(=O)N1CC2(CCN(C)CC2)SC1C` (stereo not drawn) [AF717, 1-(2,8-dimethyl-1-thia-3,8-diazaspiro[4.5]dec-3-yl)-2-propylpentan-1-one], the activity at 100 µM was < 25%.

`CC1OC2(CCN(C)CC2)C2C1N2C(=O)CCc1c[nH]c2ccccc12` (stereo not drawn) [AF718C, 1′,4-dimethyl-6-(3-indolpropionyl)-spiro-(3-oxa-6-aza-bicyclo[3.1.0]-hexane-2,4′-piperidine)]: the “M1 agonist … (full muscarinic agonist, 100%)” value turned out to be 43%.

On to `CC1OC2(CCN(C)CC2)C2C1N2S(=O)(=O)c1ccc(F)cc1` (stereo not drawn) [AF721, 1′,4-dimethyl-6-[3-(4-fluorobenzenesulfonyl)]-spiro-(3-oxa-6-aza-bicyclo[3.1.0]hexane-2,4′-piperidine)], for which the “M1 agonist … (full muscarinic agonist, 100%)” value was 13%.

Turning to `CC1SC2(CCN(C)CC2)CN1C(=O)c1cc(C(C)(C)C)c(O)c(C(C)(C)C)c1` (stereo not drawn) [AF723, (3,5-di-tert-butyl-4-hydroxy-phenyl)-(2,8-dimethyl-1-thia-3,8-diaza-spiro[4.5]dec-3-yl)-methanone], the activity at 100 µM was < 50%.

On to `CCC(=O)N1CC2(CCN(C)CC2)SC1C` (stereo not drawn) [AF724, 1-(2,8-dimethyl-1-thia-3,8-diaza-spiro[4.5]dec-3-yl)-propan-1-one], for which the activity at 100 µM is < 50%.

For `CC1SC2(CCN(C)CC2)CN1C(=O)CCCc1c[nH]c2ccccc12` (stereo not drawn) [AF725], the activity at 100 µM was < 50%.

On to `CC1SC2(CCN(C)CC2)CN1C(=O)Cc1c[nH]c2ccccc12` (stereo not drawn) [AF726], for which the Kd was found to be 84.7 µM.

Take `CC1SC2(CCN(C)CC2)CN1C(=O)/C=C/c1c[nH]c2ccccc12` (stereo not drawn) [AF727, (E)-1-(2,8-dimethyl-1-thia-3,8-diaza-spiro[4.5]dec-3-yl)-3-(1H-indol-3-yl)-propenone]: the Kd was 8.7 µM.
